The species entered for one test is Homo sapiens. Put plainly: Inhibition of N-terminal His10-tagged 15N-labeled recombinant human KRAS G12C/C118S mutant (1 to 169 residues) expressed in Escherichia coli/N-terminal His10-tagged wild-type recombinant human SOS1 catalytic domain (564 to 1049 residues) expressed in Escherichia coli protein-protein interaction at 1 mM incubated for 30 mins by 2D-NMR analysis.

Test [1] has as its target T1, Ephrin type-A receptor 6 (Homo sapiens) (UniProt Q9UF33).
T1 sequence (whole entry): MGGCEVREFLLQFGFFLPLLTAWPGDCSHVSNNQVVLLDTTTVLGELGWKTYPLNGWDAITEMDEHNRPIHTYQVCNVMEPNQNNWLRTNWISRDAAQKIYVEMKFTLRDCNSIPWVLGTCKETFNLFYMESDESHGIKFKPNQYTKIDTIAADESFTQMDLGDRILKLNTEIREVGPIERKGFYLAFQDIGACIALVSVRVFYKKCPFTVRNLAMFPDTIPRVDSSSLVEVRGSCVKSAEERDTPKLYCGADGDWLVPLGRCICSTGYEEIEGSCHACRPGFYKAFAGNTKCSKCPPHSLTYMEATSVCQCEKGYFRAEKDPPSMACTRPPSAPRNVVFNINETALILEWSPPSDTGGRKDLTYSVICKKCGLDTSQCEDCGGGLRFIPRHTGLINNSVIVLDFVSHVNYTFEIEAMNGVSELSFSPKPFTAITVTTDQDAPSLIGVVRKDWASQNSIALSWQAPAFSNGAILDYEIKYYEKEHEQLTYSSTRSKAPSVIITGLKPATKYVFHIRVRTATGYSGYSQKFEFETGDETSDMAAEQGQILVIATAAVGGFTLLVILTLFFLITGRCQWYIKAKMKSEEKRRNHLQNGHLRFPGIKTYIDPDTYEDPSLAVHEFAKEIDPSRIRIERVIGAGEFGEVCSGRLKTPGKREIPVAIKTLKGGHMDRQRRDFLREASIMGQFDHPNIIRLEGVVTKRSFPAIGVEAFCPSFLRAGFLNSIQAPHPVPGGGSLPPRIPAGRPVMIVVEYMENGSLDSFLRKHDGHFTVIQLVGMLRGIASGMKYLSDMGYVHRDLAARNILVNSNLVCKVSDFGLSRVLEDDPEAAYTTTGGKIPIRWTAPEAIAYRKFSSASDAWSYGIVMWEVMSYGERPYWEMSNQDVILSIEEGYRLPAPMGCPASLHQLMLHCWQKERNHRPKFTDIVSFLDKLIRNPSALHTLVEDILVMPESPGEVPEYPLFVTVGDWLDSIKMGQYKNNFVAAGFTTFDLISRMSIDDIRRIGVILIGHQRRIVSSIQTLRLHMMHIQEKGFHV
The experiment in a line: Inhibition of EPHA6 (unknown origin) assessed as residual activity at 100 nM by KINOMEscan analysis relative to control.

The target of test [2] is T2, Serine/threonine-protein kinase PknB (Mycobacterium tuberculosis) (UniProt P9WI81).
T2 sequence (whole entry): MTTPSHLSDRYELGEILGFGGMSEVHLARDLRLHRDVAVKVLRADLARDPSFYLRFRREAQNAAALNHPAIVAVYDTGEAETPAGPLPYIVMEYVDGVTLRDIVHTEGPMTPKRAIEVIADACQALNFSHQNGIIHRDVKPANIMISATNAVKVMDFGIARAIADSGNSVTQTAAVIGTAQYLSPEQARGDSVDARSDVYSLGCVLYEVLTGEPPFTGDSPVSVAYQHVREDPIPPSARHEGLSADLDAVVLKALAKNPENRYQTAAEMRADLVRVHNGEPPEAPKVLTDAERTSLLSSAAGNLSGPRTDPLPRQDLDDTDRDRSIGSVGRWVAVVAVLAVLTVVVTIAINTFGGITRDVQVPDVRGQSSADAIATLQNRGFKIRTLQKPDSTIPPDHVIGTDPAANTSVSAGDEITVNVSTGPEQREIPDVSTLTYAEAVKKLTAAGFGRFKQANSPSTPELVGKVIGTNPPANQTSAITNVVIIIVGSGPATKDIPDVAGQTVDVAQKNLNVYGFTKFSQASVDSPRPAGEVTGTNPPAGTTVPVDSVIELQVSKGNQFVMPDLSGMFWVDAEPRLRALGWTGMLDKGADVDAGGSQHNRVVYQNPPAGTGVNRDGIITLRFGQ
The experiment in a line: Inhibition of Mycobacterium tuberculosis PKNB assessed as residual activity at 100 nM by KINOMEscan analysis relative to control.

Test [3] concerns the target Epithelial discoidin domain-containing receptor 1 (Homo sapiens) (UniProt Q08345). Put plainly: Inhibition of DDR1 (unknown origin) assessed as residual activity at 100 nM by KINOMEscan analysis relative to control.
Test [4] addresses Dual specificity protein kinase CLK2 (Homo sapiens) (UniProt P49760). Put plainly: Inhibition of CLK2 (unknown origin) assessed as residual activity at 100 nM by KINOMEscan analysis relative to control.
For test [5], the target named is Tyrosine-protein kinase Fes/Fps (Homo sapiens) (UniProt P07332). The experiment in a line: Inhibition of FES (unknown origin) assessed as residual activity at 100 nM by KINOMEscan analysis relative to control.
Tyrosine-protein kinase Fes/Fps (Homo sapiens), sequence (P07332 whole entry): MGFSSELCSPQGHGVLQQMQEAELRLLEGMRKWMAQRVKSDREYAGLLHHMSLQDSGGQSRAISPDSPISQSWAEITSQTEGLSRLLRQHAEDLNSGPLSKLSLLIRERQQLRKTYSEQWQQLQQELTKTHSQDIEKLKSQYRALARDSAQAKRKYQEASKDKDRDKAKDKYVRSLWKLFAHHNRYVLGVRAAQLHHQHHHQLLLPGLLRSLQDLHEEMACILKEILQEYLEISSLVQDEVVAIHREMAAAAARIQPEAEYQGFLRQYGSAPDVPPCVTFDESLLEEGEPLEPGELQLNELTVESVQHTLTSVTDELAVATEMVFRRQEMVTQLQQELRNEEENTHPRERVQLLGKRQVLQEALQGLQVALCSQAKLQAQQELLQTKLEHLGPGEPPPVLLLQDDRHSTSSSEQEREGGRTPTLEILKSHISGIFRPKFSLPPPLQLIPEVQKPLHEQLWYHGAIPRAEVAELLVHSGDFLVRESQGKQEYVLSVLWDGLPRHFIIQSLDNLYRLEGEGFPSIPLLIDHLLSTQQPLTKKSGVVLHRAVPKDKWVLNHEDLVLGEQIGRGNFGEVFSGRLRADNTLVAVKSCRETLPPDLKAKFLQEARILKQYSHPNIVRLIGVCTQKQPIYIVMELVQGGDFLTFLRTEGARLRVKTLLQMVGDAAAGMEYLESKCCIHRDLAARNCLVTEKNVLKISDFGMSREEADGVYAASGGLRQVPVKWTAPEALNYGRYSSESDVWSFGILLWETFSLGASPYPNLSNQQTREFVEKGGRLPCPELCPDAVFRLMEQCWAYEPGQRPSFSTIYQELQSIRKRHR
Test [6] addresses T3, Membrane-associated tyrosine- and threonine-specific cdc2-inhibitory kinase (Homo sapiens) (UniProt Q99640).
T3 sequence (whole entry): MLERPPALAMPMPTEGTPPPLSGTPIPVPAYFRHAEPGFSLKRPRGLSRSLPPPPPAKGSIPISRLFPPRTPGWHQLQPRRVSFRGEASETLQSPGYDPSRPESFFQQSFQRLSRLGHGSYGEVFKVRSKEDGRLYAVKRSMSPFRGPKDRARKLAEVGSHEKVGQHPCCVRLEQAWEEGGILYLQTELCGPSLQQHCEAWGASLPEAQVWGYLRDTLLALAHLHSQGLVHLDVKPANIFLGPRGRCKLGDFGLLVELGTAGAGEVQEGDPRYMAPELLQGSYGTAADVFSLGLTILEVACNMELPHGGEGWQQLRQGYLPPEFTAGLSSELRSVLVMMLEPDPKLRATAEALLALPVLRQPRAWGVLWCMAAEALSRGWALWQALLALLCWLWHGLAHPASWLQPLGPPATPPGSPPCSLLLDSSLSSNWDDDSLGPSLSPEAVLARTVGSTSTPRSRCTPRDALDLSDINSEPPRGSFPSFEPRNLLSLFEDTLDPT
The experiment in a line: Inhibition of PKMYT1 (unknown origin) assessed as residual activity at 100 nM by KINOMEscan analysis relative to control.

Each structure is given as a SMILES string. The source made the active and inactive calls. No cut-off for these calls is given here.

Epithelial discoidin domain-containing receptor 1 (Homo sapiens), sequence (Q08345 whole entry, the tested form may be a part): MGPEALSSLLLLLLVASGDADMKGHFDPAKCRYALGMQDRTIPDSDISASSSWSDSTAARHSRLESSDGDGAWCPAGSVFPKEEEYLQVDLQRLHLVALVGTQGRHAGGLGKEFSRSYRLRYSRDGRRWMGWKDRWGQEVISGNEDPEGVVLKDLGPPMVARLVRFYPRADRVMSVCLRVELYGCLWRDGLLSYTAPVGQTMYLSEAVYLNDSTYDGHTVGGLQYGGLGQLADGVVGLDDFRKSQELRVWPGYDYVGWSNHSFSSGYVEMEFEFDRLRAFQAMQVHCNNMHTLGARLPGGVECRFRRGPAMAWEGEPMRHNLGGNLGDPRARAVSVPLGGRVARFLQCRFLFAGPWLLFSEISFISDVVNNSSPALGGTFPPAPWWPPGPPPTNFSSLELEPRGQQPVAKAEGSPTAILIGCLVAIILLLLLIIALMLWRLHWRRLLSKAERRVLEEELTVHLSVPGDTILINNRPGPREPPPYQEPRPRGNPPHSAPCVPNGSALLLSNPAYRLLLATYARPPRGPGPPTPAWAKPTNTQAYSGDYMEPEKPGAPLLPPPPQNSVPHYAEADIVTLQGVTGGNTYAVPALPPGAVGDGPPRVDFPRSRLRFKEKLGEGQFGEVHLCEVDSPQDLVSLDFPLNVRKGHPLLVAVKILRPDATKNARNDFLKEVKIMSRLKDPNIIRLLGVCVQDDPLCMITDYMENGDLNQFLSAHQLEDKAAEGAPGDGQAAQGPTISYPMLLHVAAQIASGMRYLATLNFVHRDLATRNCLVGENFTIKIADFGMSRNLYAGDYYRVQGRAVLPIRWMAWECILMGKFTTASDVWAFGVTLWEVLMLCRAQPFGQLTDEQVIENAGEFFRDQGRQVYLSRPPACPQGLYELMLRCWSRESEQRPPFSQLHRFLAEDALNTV
Dual specificity protein kinase CLK2 (Homo sapiens), sequence (P49760 whole entry, looked up): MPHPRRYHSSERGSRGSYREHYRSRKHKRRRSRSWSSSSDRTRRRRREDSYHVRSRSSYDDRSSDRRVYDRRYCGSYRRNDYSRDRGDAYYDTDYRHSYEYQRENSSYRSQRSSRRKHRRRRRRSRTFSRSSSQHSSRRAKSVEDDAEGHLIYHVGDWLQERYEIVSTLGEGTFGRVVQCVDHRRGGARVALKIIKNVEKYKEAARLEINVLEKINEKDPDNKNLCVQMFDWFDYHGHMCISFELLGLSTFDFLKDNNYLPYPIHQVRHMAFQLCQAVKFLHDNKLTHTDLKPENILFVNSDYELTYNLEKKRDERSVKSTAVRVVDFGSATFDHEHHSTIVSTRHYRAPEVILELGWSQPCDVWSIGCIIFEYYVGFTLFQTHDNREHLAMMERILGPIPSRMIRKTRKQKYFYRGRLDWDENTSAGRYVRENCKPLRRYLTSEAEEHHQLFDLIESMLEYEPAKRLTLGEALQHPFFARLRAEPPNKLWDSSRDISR

Turning to `COc1cc2ncnc(N[C@H](C)c3cccc4ccccc34)c2cc1OC`, the outcome in the test listed under Homo sapiens was Active. Moreover, the Activity in test [1] stood at 77%; in test [2] it was 96%; in test [3] it was 100%; in test [4], 100%; in test [5] it was 78%; in test [6], 100%.
